Literature values in USRE38386E1, “Retardation of metalloproteinase incidental to HIV and/or AIDS” (priority 1997, dated 2004).

Tests used:
HIV-infected monocytes = details: interferon-gamma at 50 U/ml
HIV = details: added to monocytes on day 10 after infection
[1] = tested on: 92-kd metalloproteinase (MMP-9)
[2] = tested on: endothelial cell monolayers; details: incubation of HIV-infected monocytes with the proteinase inhibitor

Substance	ability of infected monocytes to form an invasive network on matrigel and their invasion through the matrigel matrix (HIV-infected monocytes)	reduction of virus replication (HIV)	inhibition of MMP-9 production ([1]; added to monocytes on day 10 after infection)	levels of MMP-9 ([1]; treated 1 day after HIV infection, vs monocytes inoculated with live HIV, heat-inactivated HIV or uninfected control)	levels of MMP-9 produced by HIV-infected monocytes ([1]; treated 1 day prior to infection with HIV, vs untreated HIV-infected monocytes)	increased permeability of endothelial cell monolayers to 125I albumin [2]
interferon-gamma: interferon-gamma, used to treat HIV-infected monocytes	inhibited	no significant reduction	more than threefold	substantially lower	significant reduction	
TIMP-1: proteinase inhibitor, tissue inhibitor of metalloproteinase						inhibited
